“Also recorded” adds a separate entry of the source. Read-outs that look alike come from different tables or passages of the source.
How the values were obtained:
[1] = system: breast cancer resistance protein; details: in vitro; at clinically relevant concentrations; cited from earlier work
P‐gp = details: in vitro; at clinically relevant concentrations; cited from earlier work
[2] = type: in vivo, human; details: study 1
P‐glycoprotein = details: in vitro; cited from earlier work
[3] = system: organic anion transporter 3; details: in vitro; at clinically relevant concentrations; cited from earlier work
bile salt export pump = details: in vitro; at clinically relevant concentrations; cited from earlier work
[4] = biological target: T1, organic cation transporter 2 (OCT2) (Homo sapiens, UniProt O15244); assay: In vitro transporter inhibition: OCT2; type: in vitro ADME; details: data on file at Gilead Sciences, Inc.
T1 sequence (O15244 1-555): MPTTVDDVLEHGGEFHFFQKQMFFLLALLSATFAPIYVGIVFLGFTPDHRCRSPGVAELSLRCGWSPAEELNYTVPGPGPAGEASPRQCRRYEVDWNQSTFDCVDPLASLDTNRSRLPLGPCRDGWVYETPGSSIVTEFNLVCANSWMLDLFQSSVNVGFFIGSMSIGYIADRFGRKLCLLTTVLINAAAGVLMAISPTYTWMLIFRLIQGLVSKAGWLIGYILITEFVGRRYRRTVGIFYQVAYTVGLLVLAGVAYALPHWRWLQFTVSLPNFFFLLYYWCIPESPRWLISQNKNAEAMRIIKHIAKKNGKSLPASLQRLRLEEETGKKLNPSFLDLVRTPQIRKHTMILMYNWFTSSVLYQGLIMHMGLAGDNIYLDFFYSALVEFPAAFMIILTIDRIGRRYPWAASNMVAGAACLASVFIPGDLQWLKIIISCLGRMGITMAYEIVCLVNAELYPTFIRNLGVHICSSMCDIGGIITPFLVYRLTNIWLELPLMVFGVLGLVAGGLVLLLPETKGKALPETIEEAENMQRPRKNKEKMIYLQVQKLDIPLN

MATE2K = MATE2K (Homo sapiens, UniProt Q86VL8); assay: In vitro transporter inhibition: MATE2K; type: in vitro ADME; details: data on file at Gilead Sciences, Inc.
Sequence of MATE2K (Q86VL8 1-566 isoform Q86VL8-3): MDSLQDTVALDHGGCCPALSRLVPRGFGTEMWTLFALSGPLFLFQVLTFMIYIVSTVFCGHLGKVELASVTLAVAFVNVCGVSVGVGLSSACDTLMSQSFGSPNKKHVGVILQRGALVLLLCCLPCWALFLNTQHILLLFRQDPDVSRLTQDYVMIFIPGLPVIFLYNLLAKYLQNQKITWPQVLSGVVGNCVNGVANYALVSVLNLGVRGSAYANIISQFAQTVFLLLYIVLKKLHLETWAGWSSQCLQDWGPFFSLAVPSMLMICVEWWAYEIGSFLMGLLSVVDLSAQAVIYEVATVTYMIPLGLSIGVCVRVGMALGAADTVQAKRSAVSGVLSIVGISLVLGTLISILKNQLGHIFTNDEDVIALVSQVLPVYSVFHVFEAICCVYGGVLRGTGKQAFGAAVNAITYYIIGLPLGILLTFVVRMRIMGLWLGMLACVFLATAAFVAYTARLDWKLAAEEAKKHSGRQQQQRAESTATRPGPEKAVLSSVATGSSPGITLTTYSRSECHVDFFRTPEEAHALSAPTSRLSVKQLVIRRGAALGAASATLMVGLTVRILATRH

[5] = system: organic anion transporter 1; details: in vitro; at clinically relevant concentrations; cited from earlier work
[6] = cited from earlier work
[7] = type: in vivo, human; details: study 2
JAK1 = details: cited from earlier work
[8] = system: organic cation transporter 1; details: in vitro; at clinically relevant concentrations; cited from earlier work
[9] = system: organic anion transporter 4; details: in vitro; at clinically relevant concentrations; cited from earlier work
[10] = filgotinib: unchanged; cited from earlier work
Safety assessments = type: in vivo, human; details: for subjects with AEs: all grade 1
[11] = Study 3: metformin pharmacokinetics alone or with filgotinib in healthy subjects; details: human, plasma, oral, 850 mg
[12] = available data; cited from earlier work
CES2 = details: human hepatocytes; cited from earlier work
CES1 = details: human hepatocytes; cited from earlier work
[13] = filgotinib + itraconazole vs filgotinib alone
[14] = single filgotinib 100 mg alone, fasting, median (Q1, Q3), N = 13
[15] = single filgotinib 100 mg alone, fasting, plasma, mean (%CV), N = 13
[16] = patients with rheumatoid arthritis
[17] = filgotinib 200 mg after multiple doses of rifampin 600 mg vs alone
[18] = filgotinib + rifampin vs filgotinib alone
[19] = single filgotinib 200 mg alone, fasting, plasma, mean (%CV), N = 14
[20] = single filgotinib 200 mg alone, median (Q1, Q3), N = 14

Nc1nc2cccc(-c3ccc(CN4CCS(=O)(=O)CC4)cc3)n2n1 [GS‐829845]
inhibition of breast cancer resistance protein [1]: not inhibitors
inhibition of P‐gp (P‐gp): not inhibitors
AUCinf %GLSM ratio (90% CI) [2, 13]: 107 (104,110) %
AUClast %GLSM ratio (90% CI) [2, 13]: 106 (103,109) %
effect of itraconazole on pharmacokinetic parameters (in words) ([2]; filgotinib: Tmax, t1/2, GS‐829845: C max, AUCinf, T max, t 1/2): no effect; also recorded: similar; also recorded: did not affect
T max [2, 14]: 4.00 (4.00, 4.00) h
t1/2 [2, 14]: 17.0 (14.0,19.5) h
AUCinf [2, 15]: 31,200 (18.4) ng*h/ml
AUClast [2, 15]: 30,800 (18.0) ng*h/ml
C max [2, 15]: 1160 (24.8) ng/ml
substrate of P‐glycoprotein (P‐glycoprotein): substrates
inhibition of organic anion transporter 3 [3]: not inhibitors
inhibition of bile salt export pump (bile salt export pump): not inhibitors
inhibition of OCT2 (in words) ([4]; in vitro data): may inhibit
ratio of maximum unbound plasma concentration over in vitro IC50 against OCT2 [4, 16]: 0.5
inhibition of MATE2K (in words) (MATE2K; in vitro data): may inhibit
ratio of maximum unbound plasma concentration over in vitro IC50 against MATE2K (MATE2K; [16]): 0.69
inhibition of organic anion transporter 1 [5]: not inhibitors
accumulation following multiple doses [6]: approximately twofold accumulation
time to steady‐state concentrations [6]: ~4 days
reduction in AUCinf by rifampin [7, 17]: 38%
reduction in C max by rifampin [7, 17]: 19%
AUCinf %GLSM ratio (90% CI) [7, 18]: 61.9 (57.9, 66.1) %
AUClast %GLSM ratio (90% CI) [7, 18]: 62.3 (58.4, 66.4) %
C max %GLSM ratio (90% CI) [7, 18]: 81.0 (76.8, 85.4) %
effect of rifampin on T max and t 1/2 (in words) ([7]; filgotinib: T max and t 1/2, GS‐829845: Tmax): similar
AUCinf [7, 19]: 77,400 (25.3) ng*h/ml
AUClast [7, 19]: 76,700 (24.8) ng*h/ml
C max [7, 19]: 2900 (15.1) ng/ml
Tmax [7, 20]: 4.00 (3.00, 4.00) h
t1/2 [7, 20]: 15.9 (14.8, 18.9) h
JAK1 potency relative to filgotinib (JAK1): ~ 1/10
inhibition of organic cation transporter 1 [8]: not inhibitors
inhibition of organic anion transporter 4 [9]: not inhibitors
orally administered dose recovered in feces as the named species [10]: ~ 9%
orally administered dose recovered in urine as the named species [10]: ~ 54%

CN(C)C(=N)N=C(N)N [Metformin, metformin]
subjects with AEs (Safety assessments; study 3, by treatment period): 25%
AE considered related to study drug (kind of AE) (Safety assessments; study 3, one subject, by treatment phase): nausea + vomiting
AUC(0-inf) [11]: 8720 ng·h/mL
AUC(0-t) [11]: 8640 ng·h/mL
maximal increase of metformin exposure via OCT2, MATE1, and MATE2K inhibition [12]: ~ 2.6 fold

CO[C@H]1/C=C/O[C@@]2(C)Oc3c(C)c(O)c4c(O)c(c(/C=N/N5CCN(C)CC5)c(O)c4c3C2=O)NC(=O)/C(C)=C\C=C\[C@H](C)[C@H](O)[C@@H](C)[C@@H](O)[C@@H](C)[C@H](OC(C)=O)[C@@H]1C [rifampin, reference compound]
induction of CES2 (CES2): moderate induction
subjects with AEs considered to be related to study drug (nausea) (Safety assessments; study 2): 7.1%
subjects with grade 3 laboratory abnormality (occult blood in urine) (Safety assessments; study 2): 14%
subjects with AEs (Safety assessments; study 2, by treatment period): 14%
subjects with at least one graded laboratory abnormality (Safety assessments; study 2, by treatment period, majority grade 1 or 2): 93%
induction of CES1 (CES1): moderate induction

From article PMC8841438 (Clinical and Translational Science, 2021)
